Assay results taken from publication PMC9090415, “Discovery of small molecule inhibitors of Plasmodium falciparum apicoplast DNA polymerase” (Journal of Enzyme Inhibition and Medicinal Chemistry, 2022).

Target: P. falciparum apicoplast DNA polymerase (Pf-apPOL) (Plasmodium falciparum, UniProt Q8ILY1)
Assay: Fluorescence-based high-throughput DNA polymerase assay (molecular beacon), primary screen and dose-response;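 for % inhibition ApPOL 90': test concentration in µM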;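 for % inhibition apPOL 180': test concentration in µM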
Type: biochemical
How it was run: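 Single-point screening used 10 µM compound with 20 nM polymerase, 20 nM hairpin substrate and 6 µM dNTPs for 90 min at 25 °C. Confirmatory titrations (2.5–80 µM) followed fluorescence at three times, and IC50 was derived from a fit including a cooperativity term n.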

[1] = supplemental file 2, sheet IC50 nontoxic compounds; Pf-apPOL

Chain of P. falciparum apicoplast DNA polymerase (Pf-apPOL) (Q8ILY1 entry or part of it): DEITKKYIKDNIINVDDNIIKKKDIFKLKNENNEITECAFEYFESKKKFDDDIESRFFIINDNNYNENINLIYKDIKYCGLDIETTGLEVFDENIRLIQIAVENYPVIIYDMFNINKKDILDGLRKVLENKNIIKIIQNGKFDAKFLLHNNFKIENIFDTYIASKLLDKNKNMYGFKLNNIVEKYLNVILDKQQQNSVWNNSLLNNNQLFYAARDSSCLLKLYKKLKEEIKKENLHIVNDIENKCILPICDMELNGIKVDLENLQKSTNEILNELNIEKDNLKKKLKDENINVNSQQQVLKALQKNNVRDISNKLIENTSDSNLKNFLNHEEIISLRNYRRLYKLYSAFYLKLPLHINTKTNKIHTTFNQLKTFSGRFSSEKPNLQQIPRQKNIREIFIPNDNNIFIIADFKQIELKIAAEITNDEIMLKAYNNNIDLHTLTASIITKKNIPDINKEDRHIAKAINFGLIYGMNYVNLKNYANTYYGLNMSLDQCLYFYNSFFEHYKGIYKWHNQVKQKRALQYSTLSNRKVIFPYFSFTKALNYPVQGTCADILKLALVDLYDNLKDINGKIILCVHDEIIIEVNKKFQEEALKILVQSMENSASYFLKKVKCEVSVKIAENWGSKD

O=C(NNC(=O)C(F)(F)Sc1ccccc1)c1ccsc1 [Molecule 68, O=C(C(Sc1ccccc1)(F)F)NNC(=O)c1cscc1]
DNA Pol ('DNA Pol'; screening value, unit not given; 90 min, 10 µM): 82
% inhibition Apo pol 10' (DRC-1; 10'; concentration 2.5): 18.9007%
% inhibition Apo pol 10' (DRC-1; 10'; concentration 5): 22.6096%
% inhibition Apo pol 10' (DRC-1; 10'; concentration 10): 35.002%
% inhibition Apo pol 10' (DRC-1; 10'; concentration 20): 47.6682%
% inhibition Apo pol 10' (DRC-1; 10'; concentration 40): 67.1681%
% inhibition Apo pol 10' (DRC-1; 10'; concentration 80): 81.7014%
% inhibition Apol 90' (DRC-1; 90'; concentration 2.5): -2.054%
% inhibition Apol 90' (DRC-1; 90'; concentration 5): 4.132%
% inhibition Apol 90' (DRC-1; 90'; concentration 10): 13.2706%
% inhibition Apol 90' (DRC-1; 90'; concentration 20): 25.6835%
% inhibition Apol 90' (DRC-1; 90'; concentration 40): 44.8257%
% inhibition Apol 90' (DRC-1; 90'; concentration 80): 64.9924%
% inhibition apPOL 180' (DRC-1; 180'; concentration 2.5): -9.701%
% inhibition apPOL 180' (DRC-1; 180'; concentration 5): -6.4745%
% inhibition apPOL 180' (DRC-1; 180'; concentration 10): 2.016%
% inhibition apPOL 180' (DRC-1; 180'; concentration 20): 13.4425%
% inhibition apPOL 180' (DRC-1; 180'; concentration 40): 32.4259%
% inhibition apPOL 180' (DRC-1; 180'; concentration 80): 53.4351%
% inhibition Apo pol 5' (DRC-2, 5', concentration 2.5): 9%
% inhibition Apo pol 5' (DRC-2, 5', concentration 5): 10%
% inhibition Apo pol 5' (DRC-2, 5', concentration 10): 23%
% inhibition Apo pol 5' (DRC-2, 5', concentration 20): 31%
% inhibition Apo pol 5' (DRC-2, 5', concentration 40): 47%
% inhibition Apo pol 5' (DRC-2, 5', concentration 80): 58%
% inhibition Apol 40' (DRC-2, 40', concentration 2.5): 5%
% inhibition Apol 40' (DRC-2, 40', concentration 5): 7%
% inhibition Apol 40' (DRC-2, 40', concentration 10): 19%
% inhibition Apol 40' (DRC-2, 40', concentration 20): 27%
% inhibition Apol 40' (DRC-2, 40', concentration 40): 48%
% inhibition Apol 40' (DRC-2, 40', concentration 80): 64%
% inhibition ApPOL 90' (DRC-2, 90', concentration 2.5): 2.82%
% inhibition ApPOL 90' (DRC-2, 90', concentration 5): 2.82%
% inhibition ApPOL 90' (DRC-2, 90', concentration 10): 15%
% inhibition ApPOL 90' (DRC-2, 90', concentration 20): 22%
% inhibition ApPOL 90' (DRC-2, 90', concentration 40): 44%
% inhibition ApPOL 90' (DRC-2, 90', concentration 80): 62%
% inhibition apPOL 180' (DRC-2, 180', concentration 2.5): -3.39%
% inhibition apPOL 180' (DRC-2, 180', concentration 5): -3.25%
% inhibition apPOL 180' (DRC-2, 180', concentration 10): 5%
% inhibition apPOL 180' (DRC-2, 180', concentration 20): 12%
% inhibition apPOL 180' (DRC-2, 180', concentration 40): 32%
% inhibition apPOL 180' (DRC-2, 180', concentration 80): 55%
% inhibition Apol 40' (conc 2.5 (unit not given); 40'; DRC-2): 5%
% inhibition ApPOL 90' (conc 2.5 (unit not given); 90'; DRC-2): 2.82%
% inhibition ApPOL 90' (conc 5 (unit not given); 90'; DRC-2): 2.82%
% inhibition apPOL 180' (conc 10 (unit not given); 180'; DRC-2): 5%
DNA Pol (primary screen hit value, DNA Pol (186 hits); 90 min, 10 µM): 82

CCOc1cccc2cc(C(=O)Nc3nnc(-c4ccno4)o3)oc12 [Molecule 28]
IC50 [1]: 7.04 µM

O=C1N/C(=N/c2ccccc2Cl)S/C1=C/c1ccc([N+](=O)[O-])o1 [KU0054524]
% inhibition Apo pol 10' (DRC-1; 10'; concentration 2.5): 7.564%
% inhibition Apo pol 10' (DRC-1; 10'; concentration 5): 28.3365%
% inhibition Apo pol 10' (DRC-1; 10'; concentration 10): 42.7276%
% inhibition Apo pol 10' (DRC-1; 10'; concentration 20): 56.2802%
% inhibition Apo pol 10' (DRC-1; 10'; concentration 40): 80.0033%
% inhibition Apo pol 10' (DRC-1; 10'; concentration 80): 85.9961%
% inhibition Apol 90' (DRC-1; 90'; concentration 2.5): 2.857%
% inhibition Apol 90' (DRC-1; 90'; concentration 5): 16.2843%
% inhibition Apol 90' (DRC-1; 90'; concentration 10): 26.4398%
% inhibition Apol 90' (DRC-1; 90'; concentration 20): 38.2807%
% inhibition Apol 90' (DRC-1; 90'; concentration 40): 70.6237%
% inhibition Apol 90' (DRC-1; 90'; concentration 80): 84.7542%
% inhibition apPOL 180' (DRC-1; 180'; concentration 2.5): -2.619%
% inhibition apPOL 180' (DRC-1; 180'; concentration 5): 9.438%
% inhibition apPOL 180' (DRC-1; 180'; concentration 10): 15.4402%
% inhibition apPOL 180' (DRC-1; 180'; concentration 20): 23.638%
% inhibition apPOL 180' (DRC-1; 180'; concentration 40): 57.9424%
% inhibition apPOL 180' (DRC-1; 180'; concentration 80): 81.189%
% inhibition Apo pol 5' (DRC-2, 5', concentration 10 (unit not given)): 42%
% inhibition Apol 40' (DRC-2, 40', concentration 40 (unit not given)): 58%
% inhibition ApPOL 90' (DRC-2, 90', concentration 10 (unit not given)): 42%
% inhibition apPOL 180' (DRC-2, 180', concentration 10 (unit not given)): 31%
% inhibition apPOL 180' (DRC-2, 180', concentration 20 (unit not given)): 58%
% inhibition Apo pol 5' (DRC-2; 5'; concentration 2.5): 17%
% inhibition Apo pol 5' (DRC-2; 5'; concentration 5): 22%
% inhibition Apo pol 5' (DRC-2; 5'; concentration 10): 42%
% inhibition Apo pol 5' (DRC-2; 5'; concentration 20): 46%
% inhibition Apo pol 5' (DRC-2; 5'; concentration 40): 25%
% inhibition Apo pol 5' (DRC-2; 5'; concentration 80): 31%
% inhibition Apo pol 5' (DRC-2; 5'; concentration 80 (unit not given)): 31%
% inhibition Apol 40' (DRC-2; 40'; concentration 2.5): 14%
% inhibition Apol 40' (DRC-2; 40'; concentration 5): 21%
% inhibition Apol 40' (DRC-2; 40'; concentration 10): 45%
% inhibition Apol 40' (DRC-2; 40'; concentration 20): 62%
% inhibition Apol 40' (DRC-2; 40'; concentration 40): 58%
% inhibition Apol 40' (DRC-2; 40'; concentration 80): 61%
% inhibition ApPOL 90' (DRC-2; 90'; concentration 2.5): 11%
% inhibition ApPOL 90' (DRC-2; 90'; concentration 5): 16%
% inhibition ApPOL 90' (DRC-2; 90'; concentration 10): 42%
% inhibition ApPOL 90' (DRC-2; 90'; concentration 20): 63%
% inhibition ApPOL 90' (DRC-2; 90'; concentration 40): 65%
% inhibition ApPOL 90' (DRC-2; 90'; concentration 80): 68%
% inhibition apPOL 180' (DRC-2; 180'; concentration 2.5): 7%
% inhibition apPOL 180' (DRC-2; 180'; concentration 5): 8%
% inhibition apPOL 180' (DRC-2; 180'; concentration 10): 31%
% inhibition apPOL 180' (DRC-2; 180'; concentration 20): 58%
% inhibition apPOL 180' (DRC-2; 180'; concentration 40): 67%
% inhibition apPOL 180' (DRC-2; 180'; concentration 80): 73%
DNA Pol (primary screen value of the 186 hits; unit not given; 90 min, 10 µM): 44
DNA Pol (primary screen value, head "DNA Pol", unit not given; 90 min, 10 µM): 44

O=C(O)CCS(=O)(=O)c1ccc(-c2ccc(S(=O)(=O)CCC(=O)O)cc2)cc1 [Molecule 32]
IC50 [1]: 5.7 µM

COc1ccccc1C1CC(=O)Oc2cc3c(cc21)OCO3 (stereo not drawn) [KU0104502]
DNA Pol ('DNA Pol' of the 186 hits list (screen value); 90 min, 10 µM): 42
% inhibition Apo pol 10' (DRC-1; 10'; conc 2.5): 16.5835%
% inhibition Apo pol 10' (DRC-1; 10'; conc 5): 35.5684%
% inhibition Apo pol 10' (DRC-1; 10'; conc 10): 61.1126%
% inhibition Apo pol 10' (DRC-1; 10'; conc 20): 76.0203%
% inhibition Apo pol 10' (DRC-1; 10'; conc 40): 89.9974%
% inhibition Apo pol 10' (DRC-1; 10'; conc 80): 93.475%
% inhibition Apol 90' (DRC-1; 90'; conc 2.5): 2.531%
% inhibition Apol 90' (DRC-1; 90'; conc 5): 13.2862%
% inhibition Apol 90' (DRC-1; 90'; conc 10): 34.6587%
% inhibition Apol 90' (DRC-1; 90'; conc 20): 54.2638%
% inhibition Apol 90' (DRC-1; 90'; conc 40): 81.0345%
% inhibition Apol 90' (DRC-1; 90'; conc 80): 93.8969%
% inhibition apPOL 180' (DRC-1; 180'; conc 2.5): -4.384%
% inhibition apPOL 180' (DRC-1; 180'; conc 5): 1.7201%
% inhibition apPOL 180' (DRC-1; 180'; conc 10): 18.8078%
% inhibition apPOL 180' (DRC-1; 180'; conc 20): 38.0211%
% inhibition apPOL 180' (DRC-1; 180'; conc 40): 74.6782%
% inhibition apPOL 180' (DRC-1; 180'; conc 80): 93.9211%
% inhibition Apo pol 5' (DRC-2; 5'; conc 2.5): 10%
% inhibition Apo pol 5' (DRC-2; 5'; conc 5): 34%
% inhibition Apo pol 5' (DRC-2; 5'; conc 10): 50%
% inhibition Apo pol 5' (DRC-2; 5'; conc 20): 59%
% inhibition Apo pol 5' (DRC-2; 5'; conc 40): 65%
% inhibition Apo pol 5' (DRC-2; 5'; conc 80): 66%
% inhibition Apol 40' (DRC-2; 40'; conc 2.5): 4.3%
% inhibition Apol 40' (DRC-2; 40'; conc 5): 27%
% inhibition Apol 40' (DRC-2; 40'; conc 10): 47%
% inhibition Apol 40' (DRC-2; 40'; conc 20): 62%
% inhibition Apol 40' (DRC-2; 40'; conc 40): 75%
% inhibition Apol 40' (DRC-2; 40'; conc 80): 80%
% inhibition ApPOL 90' (DRC-2; 90'; conc 2.5): 1.26%
% inhibition ApPOL 90' (DRC-2; 90'; conc 5): 23%
% inhibition ApPOL 90' (DRC-2; 90'; conc 10): 42%
% inhibition ApPOL 90' (DRC-2; 90'; conc 20): 60%
% inhibition ApPOL 90' (DRC-2; 90'; conc 40): 77%
% inhibition ApPOL 90' (DRC-2; 90'; conc 80): 82%
% inhibition apPOL 180' (DRC-2; 180'; conc 2.5): -2.17%
% inhibition apPOL 180' (DRC-2; 180'; conc 5): 12%
% inhibition apPOL 180' (DRC-2; 180'; conc 10): 31%
% inhibition apPOL 180' (DRC-2; 180'; conc 20): 53%
% inhibition apPOL 180' (DRC-2; 180'; conc 40): 78%
% inhibition apPOL 180' (DRC-2; 180'; conc 80): 85%
DNA Pol (primary screen value, "DNA Pol"; 90 min, 10 µM): 42
